From patent US12678475B2, “Compositions and methods for treating and preventing lung disease” (ARIZONA BOARD OF REGENTS ON BEHALF OF THE UNIVERSITY OF …, priority 2016, dated 2026)

Legend:
[1] = tested on: WT C57BL/6 mice challenged with IL-13; assay: Methacholine-induced airway hyper-responsiveness (AHR) in IL-13 model; assay type: in vivo; settings: IL-13 model (3.9 ug IL-13 daily, 3 days); oropharyngeal 2 h after each challenge; 24 hours post IL-13 challenge; vs vehicle
Protocol: WT C57BL/6 mice were challenged with 3.9 ug of IL-13 (arrow) once a day for 3 consecutive days via oropharyngeal instillation. […] Pulmonary function tests were conducted 24 hours post IL-13 challenge to determine if the SP-A peptide could protect from methacholine-induced airway hyper-responsiveness (AHR). Mice that received the SP-A peptide after HDM challenge had attenuated: overall resistance (Rrs) and central airways resistance (Rn) as compared to HDM challenged mice that received vehicle treatment.

[2] = tested on: WT C57BL/6 mice, HDM model; assay: Methacholine-induced airway hyper-responsiveness (AHR) in HDM model; assay type: in vivo; settings: 25 mg/mouse in 40 ml saline oropharyngeal 24 h after each challenge, 3-5 days post HDM challenge, vs vehicle
Protocol: Twenty-four hours after each challenge, mice received either scrambled vehicle or a 10-mer SP-A peptide (KEQCVEMYTD (SEQ ID NO: 4)) (arrow) that encompassed the active site containing 223Q (at a physiologic dose of […] delivered in […] of sterile saline) by oropharyngeal instillation. Pulmonary function tests were conducted 3-5 days post HDM challenge to determine if the SP-A peptide could protect from methacholine-induced airway hyper-responsiveness (AHR). Mice that received the SP-A peptide after HDM challenge had attenuated: overall resistance (Rrs) and central airways resistance (Rn) as compared to HDM challenged mice that received vehicle treatment.

[3] = tested on: SP-A deficient mice challenged in the HDM model; assay: HDM model in SP-A deficient mice, therapeutic SP-A peptides; assay type: in vivo; settings: peptide given 24 hrs after the last challenge; for eosinophilia in the lavage compartment: compared to vehicle treated mice (FIG. 3A); for mucin production: compared to vehicle treated mice (FIG. 3B)
Protocol: FIGS. 3A and 3B show the analysis of inflammation in mice that receive “therapeutic” SP-A peptides in the HDM model. Mice were sensitized and challenged in the HDM model according to common methods. Twenty-four hours after the last challenge, mice received either vehicle, a 20-mer or a 10-mer that encompassed the active site containing 223Q. BAL cellularity (left panel) and mucin production (right panel) were assessed 7 days post challenge to assess the role of SP-A on allergic airways resolution. […] Both 223Q and 223K mice are somewhat protected in the acute phase of this model.

[4] = tested on: human airway epithelial cells; assay: IL-13 exposure of airway epithelial cells from asthmatics at air liquid interface, MUC5AC by RT-PCR; assay type: cell-based
Protocol: Airway epithelial cells at ALI from two asthmatic subjects exposed to IL-13 alone, and IL-13 plus SP-A2 peptide that include the Gln at position 223 in the lectin domain (2230). Full-length oligomeric SP-A that is homozygous at position 223Q/Q was used as a positive control. After 48 hours incubation, MUCSAC expression was determined by RT-PCR
Experiments were conducted wherein airway epithelial cells from two subjects with asthma not on controller therapy were cultured at air liquid interface for two weeks. In separate conditions the cells were exposed to each peptide at 50 ng/ml for 30 minutes followed by IL-13 at 50 ng/ml and incubated for 48 hours. Cells were placed in Trizol MUCSAC was determined by RT-PCR. […] The 10 AA length is especially useful as a therapeutic agent as its size renders it able to be packaged into an inhaler type of device for delivery to the airways.
Regarding FIG. 8, human bronchial epithelial cells obtained from a well-phenotyped asthmatic were grown at an ALI for two weeks prior to experimentation. For challenge, each of the SP-A test peptides (50 μg/ml) were added to the apical compartment at least 30 minutes prior to IL-13 challenge. Muc5AC was analyzed by RT-PCR from cell lysates and analyzed as a fold over the control samples. Peptide sequences: 20-mer […] (SEQ ID NO: 8), peptide 1 PAGRGKEQCV (SEQ ID NO: 2), peptide 2 EMYTDGQWND (SEQ ID NO: 3), peptide 3 KEQCVEMYTD (SEQ ID NO: 4) FL=full length oligomeric SP-A that is extracted from lavage of alveolar proteinosis individuals.

[5] = tested on: WT C57BL/6 mice, house dust mite (HDM) model; assay: House dust mite (HDM) model in WT C57BL/6 mice, mucin production and BAL eosinophilia; assay type: in vivo; settings: WT C57BL/6, HDM days 0, 7, 14; 25 μg/mouse oropharyngeal 24 h after last challenge (FIGS. 5, 6)
Protocol: Regarding FIG. 5, WT C57BL/6 mice were sensitized and challenged in the house dust mite (HDM) model according to standard methods on days 0, 7, 14 (black arrows). Twenty-four hours after the last challenge, mice received either scrambled vehicle or a 20-mer SP-A peptide (dotted arrow) that encompassed the active site containing 223Q (at a physiologic dose of 25 μg/mouse delivered in 40 μl of sterile saline) by oropharyngeal instillation. Lung histological sections were analyzed for mucin production as assessed by PAS stain/scoring to determine if the SP-A peptide could protect from HDM-induced airway mucin production. […] Peptide sequence: […] (SEQ ID NO: 8).
Regarding FIG. 6, WT C57BL/6 mice were sensitized and challenged in the house dust mite (HDM) model according to standard methods on days 0, 7, 14 as shown in FIG. 5 (black arrows). […] Lung histological sections were analyzed for mucin production as assessed by PAS stain/scoring to determine if the SP-A peptide could protect from HDM-induced airway mucin production. […]
Regarding FIG. 7, WT C57BL/6 mice were sensitized and challenged in the house dust mite (HDM) model according to standard methods on days 0, 7, 14 as shown in FIG. 5 (black arrows). […] Bronchoalveolar lavage samples were analyzed for eosinophilia to determine if the SP-A peptide could protect from HDM-induced airway eosinophilia by decreasing eosinophil viability. […]

[6] = tested on: eosinophils; assay: In vitro studies with isolated eosinophils; assay type: cell-based
[7] = airway epithelial cells from asthmatic subjects with allergic or type 2 asthma

Substance	central airways resistance (Rn) [1]	overall resistance (Rrs) [1]	central airways resistance (Rn) [2]	overall resistance (Rrs) [2]	eosinophilia in the lavage compartment [3]	mucin production [3]	MUCSAC expression (RT-PCR) ([4]; cells from two asthmatic subjects at ALI, peptide 50 ng/ml 30 minutes, then IL-13 50 ng/ml, 48 hours (FIG. 4))	mucin production (PAS stain/scoring) [5]	eosinophil apoptosis [6]	IL-6 induced by IL-13 [4, 7]	mucin induced by IL-13 [4, 7]
KEQCVEMYTD (listed as Homo sapiens) [SEQ ID NO: 4]	attenuated	attenuated	attenuated	attenuated	significantly less eosinophilia	less mucin production	attenuates				
PAGRGKEQCVEMYTDGQWND (listed as Homo sapiens) [SEQ ID NO: 8]					significantly less eosinophilia	less mucin production		reduce mucin production			
SP-A: Surfactant protein-A, a secreted lipoprotein complex; full length oligomeric SP-A extracted from lavage of alveolar proteinosis individuals									directly stimulates eosinophil apoptosis	attenuates	attenuates
